Values quoted from earlier work, collected in patent US20020132296A1, “Human Ste20-like stress activated serine/threonine kinase” (priority 1997, published 2002).

Experiments:
[1] = test system: LPS-stimulated macrophages

C[S+]([O-])c1ccc(-c2nc(-c3ccncc3)c(-c3ccc(F)cc3)[nH]2)cc1 (centres unmarked) [SB203580]
production of TNF and IL-1 [1]: inhibit | production of TNF, IL-6 and IL-8 (TNF-stimulated HUVECs): inhibit
